Results: PMC10498358 (2023)

Experiments:
[1] = tested on: pApU (poly A–poly U) (RNA, polymer) A/U; test: fluorescence titration, Scatchard fit; conditions: I = 0.05 M (sodium cacodylate); sodium cacodylate buffer, pH 7.0; polynucleotide concentration as phosphates; n fixed at 0.2; per base
[2] = tested on: p(dAdT)2 (poly dAdT–poly dAdT) (DNA, polymer) AT; test: fluorescence titration, Scatchard fit; conditions: I = 0.05 M (sodium cacodylate); sodium cacodylate buffer, pH 7.0; polynucleotide concentration as phosphates; n fixed at 0.2; per base
[3] = tested on: pApU (poly A–poly U) (RNA, polymer) A/U; test: UV thermal denaturation at 260 nm; conditions: I = 0.05 M (sodium cacodylate); sodium cacodylate buffer, pH 7.0; r = [compound]/[RNA] = 0.3; error ±0.5 °C; per base
[4] = tested on: p(dGdC)2 (poly dGdC–poly dGdC) (DNA, polymer) GC; test: fluorescence titration, Scatchard fit; conditions: I = 0.05 M (sodium cacodylate); sodium cacodylate buffer, pH 7.0; polynucleotide concentration as phosphates; n fixed at 0.2; per base

Row | log K [1] | log K [2] | ΔTm [3] | log K [4] | Structure (SMILES)
1 | 6.4 | 7.4 | +1 °C | 5.7 | COc1c2cc(N)cc1Cc1cc(C(C)(C)C)cc(c1OCc1nccn1C)Cc1cc(NC(=O)CCCc3ccc4ccc5cccc6ccc3c4c56)cc(c1OC)Cc1cc(C(C)(C)C)cc(c1OCc1nccn1C)C2
2 | 7.2 | 6.6 | -1 °C | 6.9 | COc1c2cc(NC(=O)CCCc3ccc4ccc5cccc6ccc3c4c56)cc1Cc1cc(C(C)(C)C)cc(c1OCc1nccn1C)Cc1cc(NC(=O)CCCc3ccc4ccc5cccc6ccc3c4c56)cc(c1OC)Cc1cc(C(C)(C)C)cc(c1OCc1nccn1C)C2
